Measurements taken from patent publication US8791266B2, “Thyroid hormone β receptor agonist” (Mitsubishi Tanabe Pharma Corporation, priority 2009, dated 2014).

Key:
[1] = biological target: T1, Human Thyroid Hormone Receptor β1 (TRβ1) (Homo sapiens, UniProt P10828); assay: Transcription activation test of human thyroid hormone receptor β1 (luciferase reporter in 293T cells); format: cell-based; conditions: EC50 of transcription activation on TRβ1, 293T cells, luciferase activity after 24 hr; read-out: TRβ
T1 construct: expressed in transfected cells; host or cells: 293T cells
T1 sequence (P10828 1-461): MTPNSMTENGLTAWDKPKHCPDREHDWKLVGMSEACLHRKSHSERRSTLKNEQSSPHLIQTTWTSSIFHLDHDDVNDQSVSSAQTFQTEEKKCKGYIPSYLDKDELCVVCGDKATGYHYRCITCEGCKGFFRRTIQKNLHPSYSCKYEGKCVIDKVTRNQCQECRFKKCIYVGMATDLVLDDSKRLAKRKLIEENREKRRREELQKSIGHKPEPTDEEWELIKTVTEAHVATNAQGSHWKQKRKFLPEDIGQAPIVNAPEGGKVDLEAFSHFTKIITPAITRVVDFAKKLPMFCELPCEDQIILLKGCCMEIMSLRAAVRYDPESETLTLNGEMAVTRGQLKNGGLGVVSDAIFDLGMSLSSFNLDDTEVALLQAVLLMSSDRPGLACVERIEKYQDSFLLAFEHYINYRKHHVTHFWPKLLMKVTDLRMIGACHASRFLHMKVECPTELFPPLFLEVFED
Description: (§1) Transcription Activation Test of Human Thyroid Hormone Receptors α1 (TRα1) and β1 (TRβ1)
(§2) pcDNA3.1 vector (manufactured by Invitrogen) that expresses TRα1 or β1 cloned from human liver-derived cells, and firefly luciferase expression vector pDR4-LuC (manufactured by Stratagene) having a thyroid hormone response sequence to be a reporter were transfected into 293T cells cultured in Dulbecco's modified Eagle medium (DMEM) containing 10% of activated carbon/dextran-treated fetal bovine serum (FBS) by using Lipofectamine2000 (manufactured by Invitrogen). After 16 hr, the cells were plated again in a 96 well plate, and the medium was exchanged with DMEM containing 0.1% activated carbon/dextran-treated FBS. After 3 more hr, a compound diluted with dimethyl sulfoxide solution was added, and the luciferase activity after 24 hr was measured.
(§3) As a positive control, 3,3′,5-triiodo-L-thyronine (T3), which is a biological ligand, was used. The transcription activation action of the compound on TRα1 and TRβ1 was shown by each EC50 value and the maximum luciferase activity value relative to the maximum luciferase activity value of T3 as 100.

[2] = biological target: T2, Human Thyroid Hormone Receptor α1 (TRα1) (Homo sapiens, UniProt P10827); assay: Transcription activation test of human thyroid hormone receptor α1 (luciferase reporter in 293T cells); format: cell-based; conditions: ratio TRα/TRβ of the transcription activation EC50 values
T2 construct: expressed in transfected cells; host or cells: 293T cells
T2 sequence (P10827 1-410 isoform P10827-2): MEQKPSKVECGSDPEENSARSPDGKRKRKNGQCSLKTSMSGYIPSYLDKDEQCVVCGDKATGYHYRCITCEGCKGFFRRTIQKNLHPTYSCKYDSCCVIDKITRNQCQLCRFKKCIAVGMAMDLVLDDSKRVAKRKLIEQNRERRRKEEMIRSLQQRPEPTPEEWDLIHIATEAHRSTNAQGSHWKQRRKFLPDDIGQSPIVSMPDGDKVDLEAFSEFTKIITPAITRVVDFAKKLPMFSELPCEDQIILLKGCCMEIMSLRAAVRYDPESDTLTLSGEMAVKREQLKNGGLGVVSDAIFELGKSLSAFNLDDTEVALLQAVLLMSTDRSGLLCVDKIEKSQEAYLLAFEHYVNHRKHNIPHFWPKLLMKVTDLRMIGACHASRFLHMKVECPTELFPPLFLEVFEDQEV
Description: as §1, §2, §3

Row | Compound | EC50 [1] | selectivity (TRα/TRβ) [2]
1 | Cc1cc(NC(=O)CC(=O)O)cc(C)c1Cc1ccc(O)c(C(C)C)n1 [Example 21, 3-({4-[(5-hydroxy-6-isopropylpyridin-2-yl)methyl]-3,5-dimethylphenyl}amino)-3-oxopropanoic acid] | 30 nM | B (2<(TRα/TRβ)<5)
2 | Cc1cc(NCC(=O)O)c(C)c(C)c1Cc1ccc(O)c(C2CCCCC2)n1 [Example 62, N-{4-[(6-cyclohexyl-5-hydroxypyridin-2-yl)methyl]-2,3,5-trimethylphenyl}glycine] | 4 nM | B (2<(TRα/TRβ)<5)
3 | Cc1cc(OC2(C(=O)O)CC2)cc(C)c1Cc1ccc(O)c(C2CCCCC2)n1 [Example 18, 1-{4-[(6-cyclohexyl-5-hydroxypyridin-2-yl)methyl]-3,5-dimethylphenoxy}cyclopropanecarboxylic acid] | 2000 nM | C (2>(TRα/TRβ))
4 | CCCOc1cccc(-c2nc(Cc3c(C)cc(OCc4noc(=O)[nH]4)c(F)c3C)ccc2O)c1 [Example 236, 3-{2-fluoro-4-[5-hydroxy-6-(3-propoxy-phenyl)-pyridin-2-ylmethyl]-3,5-dimethyl-phenoxymethyl}-1,2,4-oxadiazol-5(4H)-one] | 3 nM | A (5<(TRα/TRβ))
5 | Cc1cc(OCc2noc(=O)[nH]2)cc(C)c1Cc1ccc(O)c(C2CCCCC2)n1 [Example 28, 3-({4-[(6-cyclohexyl-5-hydroxypyridin-2-yl)methyl]-3,5-dimethylphenoxy}methyl)-1,2,4-oxadiazol-5(4H)-one] | 0.2 nM | C (2>(TRα/TRβ))
6 | Cc1cc(OCc2noc(=O)[nH]2)c(C)c(C)c1Cc1ccc(O)c(C2CCCO2)n1 (centres unmarked) [Example 33, 3-[(4-{[5-hydroxy-6-(tetrahydrofuran-2-yl)pyridin-2-yl]methyl}-2,3,5-trimethylphenoxy)methyl]-1,2,4-oxadiazol-5(4H)-one] | 8 nM | B (2<(TRα/TRβ)<5)
7 | Cc1cc(OCC(=O)O)c(C)c(C)c1Cc1ccc(O)c(C2CCCCO2)n1 (centres unmarked) [Example 8, (4-{[5-hydroxy-6-(tetrahydro-2H-pyran-2-yl)pyridin-2-yl]methyl}-2,3,5-trimethylphenoxy)acetic acid] | 50 nM | A (5<(TRα/TRβ))
8 | Cc1cc(OC(C)(C)C(=O)O)c(C)c(C)c1Cc1ccc(O)c(C2CCCCC2)n1 [Example 17, 2-{4-[(6-cyclohexyl-5-hydroxypyridin-2-yl)methyl]-2,3,5-trimethylphenoxy}-2-methylpropanoic acid] | 20 nM | B (2<(TRα/TRβ)<5)
9 | Cc1cc(OCc2noc(=O)[nH]2)cc(C)c1Cc1ccc(O)c(-c2ccc3ccccc3c2)n1 [Example 29, 3-[(4-{[5-hydroxy-6-(2-naphthyl)pyridin-2-yl]methyl}-3,5-dimethylphenoxy)methyl]-1,2,4-oxadiazol-5(4H)-one] | 2 nM | A (5<(TRα/TRβ))
10 | Cc1cc(OCC(=O)O)c(C)c(C)c1Cc1ccc(O)c(C(=O)N(C)CCc2ccccc2)n1 [Example 80] | 100 nM | B (2<(TRα/TRβ)<5)
11 | Cc1cc(NC(=O)CC(=O)O)cc(C)c1Cc1ccc(O)c(-c2ccccc2)n1 [Example 22, 3-({4-[(5-hydroxy-6-phenylpyridin-2-yl)methyl]-3,5-dimethylphenyl}amino)-3-oxopropanoic acid] | 200 nM | A (5<(TRα/TRβ))
12 | Cc1cc(OC(C)C(=O)O)cc(C)c1Cc1ccc(O)c(C2CCCCC2)n1 (centres unmarked) [Example 14, 2-{4-[(6-cyclohexyl-5-hydroxypyridin-2-yl)methyl]-3,5-dimethylphenoxy}propanoic acid] | 10 nM | B (2<(TRα/TRβ)<5)
13 | Cc1cc(-n2nc(C#N)c(=O)[nH]c2=O)cc(C)c1Cc1ccc(O)c(-c2ccccc2)n1 [Example 216, 2-{4-[(5-hydroxy-6-phenylpyridin-2-yl)methyl]-3,5-dimethylphenyl}-3,5-dioxo-2,3,4,5-tetrahydro-1,2,4-triazine-6-carbonitrile] | 4 nM | A (5<(TRα/TRβ))
14 | Cc1cc(C(=O)O)c(C)c(C)c1Cc1ccc(O)c(C2CCCCC2)n1 [Example 42, 4-[(6-cyclohexyl-5-hydroxypyridin-2-yl)methyl]-2,3,5-trimethylbenzoic acid] | 300 nM | B (2<(TRα/TRβ)<5)
15 | Cc1cc(/C=C/C(=O)O)c(C)c(C)c1Cc1ccc(O)c(C2CCCCC2)n1 [Example 25, (2E)-3-{4-[(6-cyclohexyl-5-hydroxypyridin-2-yl)methyl]-2,3,5-trimethylphenyl}acrylic acid] | 1 nM | C (2>(TRα/TRβ))
16 | Cc1cc(NC(=O)CC(=O)O)c(F)c(C)c1Cc1ccc(O)c(C2CCCCCC2)n1 [Example 131, 3-({4-[(6-cycloheptyl-5-hydroxypyridin-2-yl)methyl]-2-fluoro-3,5-dimethylphenyl}amino)-3-oxopropanoic acid] | 4 nM | A (5<(TRα/TRβ))
